In article PMC3433420 (PLoS ONE, 2012):
Residues, ends and D or L forms follow the SMILES beside them.

Experiments:
Assay in all cases: FP saturation binding assay
[1] = molecular target: PLCG1-N SH2 domain (Homo sapiens, UniProt P19174)
[2] = molecular target: T1, FGR SH2 domain (Homo sapiens, UniProt P09769); settings: Protein FGR, high-confidence ErbB interactions, mean over replicate hits
T1 construct: 93 SH2 and 2 PTB domain-containing constructs; 6X His; thioredoxin; made in house; host or cells: E. coli BL21(DE3)pLysS
T1 sequence (P09769 144-241 limits assumed): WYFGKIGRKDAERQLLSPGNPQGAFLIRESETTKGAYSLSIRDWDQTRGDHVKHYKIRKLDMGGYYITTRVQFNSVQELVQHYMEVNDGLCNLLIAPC
How it was run: (§1)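 KD values come from least-squares fits of fluorescence polarization (ex 530, em 555 nm), corrected for thioredoxin nonspecific binding and plate baseline, with outliers pruned. Fixed 10 nM labeled peptide met a 0.002–10 µM protein series for 20 min at room temperature in HEPES/KCl/Tween/DTT buffer, pH 7.8.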

[3] = molecular target: T2, HCK SH2 domain (Homo sapiens, UniProt P08631); settings: protein HCK, high-confidence ErbB interactions, mean of replicate hits
T2 construct: 93 SH2 and 2 PTB domain-containing constructs; 6X His; thioredoxin; made in house; host or cells: E. coli BL21(DE3)pLysS
T2 sequence (P08631 144-241 limits assumed): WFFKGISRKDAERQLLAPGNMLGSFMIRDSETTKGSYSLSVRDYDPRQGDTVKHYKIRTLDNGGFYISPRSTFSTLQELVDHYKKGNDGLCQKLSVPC
How it was run: as §1

[4] = molecular target: BLNK SH2 domain (Homo sapiens, UniProt Q8WV28)
Chain of BLNK SH2 domain (Q8WV28 346-453 limits assumed): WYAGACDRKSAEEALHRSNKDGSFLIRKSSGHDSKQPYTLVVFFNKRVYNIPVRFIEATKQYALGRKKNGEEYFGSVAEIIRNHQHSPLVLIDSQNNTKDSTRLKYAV

[5] = molecular target: T3, SH2D1B SH2 domain (Homo sapiens, UniProt O14796)
T3 sequence (O14796 5-101 limits assumed): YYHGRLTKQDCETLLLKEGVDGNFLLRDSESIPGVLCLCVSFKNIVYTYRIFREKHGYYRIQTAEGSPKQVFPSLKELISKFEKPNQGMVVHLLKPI

[6] = molecular target: T4, PIK3R1-C SH2 domain (Homo sapiens, UniProt P27986); settings: protein PIK3R1-C, high-confidence ErbB interactions, mean of replicate hits
T4 construct: 6X His; thioredoxin; made in house; host or cells: E. coli BL21(DE3)pLysS
T4 sequence (P27986 624-718 limits assumed): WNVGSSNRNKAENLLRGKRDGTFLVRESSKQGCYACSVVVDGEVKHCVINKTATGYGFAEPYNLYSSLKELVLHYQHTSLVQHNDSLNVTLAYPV
How it was run: as §1

[7] = molecular target: T5, ABL2 SH2 domain (Homo sapiens, UniProt P42684); settings: protein ABL2, high-confidence ErbB interactions, mean of replicate hits
T5 construct: 93 SH2 and 2 PTB domain-containing constructs; 6X His; thioredoxin; made in house; host or cells: E. coli BL21(DE3)pLysS
T5 sequence (P42684 173-263 limits assumed): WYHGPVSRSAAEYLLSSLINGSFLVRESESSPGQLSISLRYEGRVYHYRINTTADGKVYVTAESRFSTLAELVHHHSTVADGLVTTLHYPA
How it was run: as §1

[8] = molecular target: SYK-NC tandem SH2 domains (Homo sapiens, UniProt P43405)
[9] = molecular target: VAV1 SH2 domain (Homo sapiens, UniProt P15498)
Chain of VAV1 SH2 domain (P15498 671-765 limits assumed): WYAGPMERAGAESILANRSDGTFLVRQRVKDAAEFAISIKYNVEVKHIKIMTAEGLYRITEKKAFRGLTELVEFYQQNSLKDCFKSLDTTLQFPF

[10] = molecular target: T6, SRC SH2 domain (Homo sapiens, UniProt P12931); settings: protein SRC; high-confidence ErbB interactions; mean of replicate hits
T6 construct: between the c-Src SH2 domain and ErbB1 in our FP assay; 6X His; thioredoxin; made in house; host or cells: E. coli BL21(DE3)pLysS
T6 sequence (P12931 151-248 limits assumed): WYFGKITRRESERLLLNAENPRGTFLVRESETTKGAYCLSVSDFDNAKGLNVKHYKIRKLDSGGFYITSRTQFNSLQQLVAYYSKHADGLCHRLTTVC
How it was run: as §1

[11] = molecular target: STAP1 SH2 domain (Homo sapiens, UniProt Q9ULZ2)
Chain of STAP1 SH2 domain (Q9ULZ2 177-280 limits assumed): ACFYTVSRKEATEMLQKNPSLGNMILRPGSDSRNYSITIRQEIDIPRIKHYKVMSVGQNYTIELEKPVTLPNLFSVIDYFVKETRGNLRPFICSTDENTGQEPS

Chain of PLCG1-N SH2 domain (P19174 550-657 limits assumed): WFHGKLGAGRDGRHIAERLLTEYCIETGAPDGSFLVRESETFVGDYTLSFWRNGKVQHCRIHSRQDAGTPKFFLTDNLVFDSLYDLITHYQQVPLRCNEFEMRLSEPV

Structure (SMILES): CC(C)[C@H](NC(=O)[C@H](CC(=O)O)NC(=O)[C@@H]1CCCN1C(=O)[C@H](CCC(N)=O)NC(=O)[C@H](CC(N)=O)NC(=O)[C@@H](NC(=O)[C@H](Cc1ccc(OP(=O)(O)O)cc1)NC(=O)[C@H](CCC(=O)O)NC(=O)[C@@H]1CCCN1C(=O)[C@H](CCC(N)=O)NC(=O)[C@@H]1CCCN1)C(C)C)C(=O)N[C@@H](CCCNC(=N)N)C(=O)N[C@@H](CC(=O)O)C(=O)O [ErbB2 1139 13-mer] (HELM PEPTIDE1{P.Q.P.E.[O=C([C@H](Cc1ccc(OP(=O)(O)O)cc1)N[*:1])[*:2]].V.N.Q.P.D.V.R.D}$$$$V2.0)
- Kd [1]: 11.8 µM

Structure (SMILES): CC(C)C[C@H](NC(=O)[C@H](CC(N)=O)NC(=O)[C@@H](N)CC(=O)O)C(=O)N[C@@H](Cc1ccc(O)cc1)C(=O)N[C@@H](Cc1ccc(OP(=O)(O)O)cc1)C(=O)N[C@@H](Cc1c[nH]c2ccccc12)C(=O)N[C@@H](CC(=O)O)C(=O)N[C@@H](CCC(N)=O)C(=O)N[C@@H](CC(=O)O)C(=O)N1CCC[C@H]1C(=O)N1CCC[C@H]1C(=O)N[C@@H](CCC(=O)O)C(=O)N[C@@H](CC(=O)O)C(=O)O [ErbB2 1222 13-mer] (HELM PEPTIDE1{D.N.L.Y.[O=C([C@H](Cc1ccc(OP(=O)(O)O)cc1)N[*:1])[*:2]].W.D.Q.D.P.P.E.D}$$$$V2.0)
- Kd [2]: 8.34 µM

Structure (SMILES): CSCC[C@H](NC(=O)[C@H](Cc1ccc(OP(=O)(O)O)cc1)NC(=O)[C@H](CCC(=O)O)NC(=O)[C@H](Cc1ccc(O)cc1)NC(=O)CNC(=O)[C@@H](N)CC(C)C)C(=O)N[C@@H](CC(=O)O)C(=O)N[C@H](C(=O)NCC(=O)N[C@@H](CO)C(=O)N[C@@H](CC(=O)O)C(=O)N[C@@H](CC(C)C)C(=O)N[C@@H](CC(=O)O)C(=O)O)C(C)C [ErbB3 1224 13-mer] (HELM PEPTIDE1{L.G.Y.E.[O=C([C@H](Cc1ccc(OP(=O)(O)O)cc1)N[*:1])[*:2]].M.D.V.G.S.D.L.D}$$$$V2.0)
- Kd [3]: 10.9 µM
- Kd [4]: 3.63 µM
- Kd [5]: 1.47 µM

Structure (SMILES): CSCC[C@H](NC(=O)[C@H](CCC(=O)O)NC(=O)[C@H](CCC(=O)O)NC(=O)[C@H](Cc1ccc(OP(=O)(O)O)cc1)NC(=O)CNC(=O)[C@H](CCC(N)=O)NC(=O)[C@H](CCC(=O)O)NC(=O)[C@@H](N)CO)C(=O)N[C@@H](CCCNC(=N)N)C(=O)N[C@@H](C)C(=O)N[C@@H](Cc1ccccc1)C(=O)N[C@@H](CCC(N)=O)C(=O)N[C@@H](CC(=O)O)C(=O)O [ErbB3 1289 13-mer] (HELM PEPTIDE1{S.E.Q.G.[O=C([C@H](Cc1ccc(OP(=O)(O)O)cc1)N[*:1])[*:2]].E.E.M.R.A.F.Q.D}$$$$V2.0)
- Kd [6]: 0.2 µM

Structure (SMILES): CSCC[C@H](NC(=O)[C@H](Cc1ccc(OP(=O)(O)O)cc1)NC(=O)CNC(=O)[C@H](CCC(=O)O)NC(=O)[C@H](CCC(=O)O)NC(=O)[C@H](CC(=O)O)NC(=O)[C@H](CC(C)C)NC(=O)[C@H](CCC(=O)O)NC(=O)CNC(=O)[C@H](CCCNC(=N)N)NC(=O)[C@@H]1CCCN1)C(=O)N[C@H](C(=O)N1CCC[C@H]1C(=O)N[C@@H](CCSC)C(=O)N[C@@H](CCCNC(=N)N)C(=O)N[C@@H](CC(=O)O)C(=O)N[C@@H](CCCCN)C(=O)N[C@@H](CC(=O)O)C(=O)O)[C@@H](C)O [ErbB4 1150 18-mer] (HELM PEPTIDE1{P.R.G.E.L.D.E.E.G.[O=C([C@H](Cc1ccc(OP(=O)(O)O)cc1)N[*:1])[*:2]].M.T.P.M.R.D.K.D}$$$$V2.0)
- Kd [7]: 8.25 µM
- Kd [8]: 6.19 µM
- Kd [9]: 0.86 µM

Structure (SMILES): CC(C)C[C@H](NC(=O)[C@H](Cc1ccc(OP(=O)(O)O)cc1)NC(=O)[C@H](CC(C)C)NC(=O)[C@@H]1CCCN1C(=O)[C@H](CCC(=O)O)NC(=O)[C@H](CC(N)=O)NC(=O)[C@@H](NC(=O)[C@H](Cc1ccc(O)cc1)NC(=O)[C@H](CCC(=O)O)NC(=O)[C@H](CC(=O)O)NC(=O)[C@@H](N)CCC(=O)O)C(C)C)C(=O)N[C@@H](CC(N)=O)C(=O)N[C@H](C(=O)N[C@@H](Cc1ccccc1)C(=O)N[C@@H](C)C(=O)N[C@@H](CC(N)=O)C(=O)N[C@H](C(=O)N[C@@H](CC(=O)O)C(=O)O)[C@@H](C)O)[C@@H](C)O [ErbB4 1208 18-mer] (HELM PEPTIDE1{E.D.E.Y.V.N.E.P.L.[O=C([C@H](Cc1ccc(OP(=O)(O)O)cc1)N[*:1])[*:2]].L.N.T.F.A.N.T.D}$$$$V2.0)
- Kd [10]: 5.84 µM
- Kd [11]: 10.1 µM
